The values that follow come from article PMC6352951, “Computationally driven discovery of phenyl(piperazin-1-yl)methanone derivatives as reversible monoacylglycerol lipase (MAGL) inhibitors” (Journal of Enzyme Inhibition and Medicinal Chemistry, 2019).

In assay [1] the test system is breast MDA-MB-231 cancer cells. The assay can be described thus: Cell viability assay. In kind it is cell-based, human. Particulars: 96 h, mean ± SD. As to the method:
(§1) Human breast MDA-MB-231, colorectal HCT116 and ovarian CAOV3, OVCAR3, and SKOV3 cancer cells (from ATCC) were maintained at 37 °C in a humidified atmosphere containing 5% CO2 according to the supplier. Cells (5 × 10^2) were plated in 96-well culture plates. The day after seeding, vehicle or compounds were added at different concentrations to the medium. Compounds were added to the cell culture at a concentration ranging from 200 to 0.02 μM. Cell viability was measured after 96 h according to the supplier (Promega, cat. n° G7571) with a Tecan M1000 PRO instrument. IC50 values were calculated from logistical dose-response curves. Averages were obtained from triplicates and error bars are standard deviations.

Assay [2] deals with colorectal HCT116 cancer cells. The assay can be described thus: Cell viability assay. In kind it is cell-based, human. To be noted: 96 h, mean ± SD. As to the method:
as §1

Assay [3] concerns ovarian CAOV3 cancer cells. Description: Cell viability assay. Particulars: 96 h, mean ± SD. In kind it is cell-based, human. As to the method:
as §1

Assay [4] has as its system ovarian OVCAR3 cancer cells. Description: Cell viability assay. Particulars: 96 h, mean ± SD. In kind it is cell-based, human. Here is the method:
as §1

Assay [5] deals with ovarian SKOV3 cancer cells. Description: Cell viability assay. Particulars: 96 h, mean ± SD. In kind it is cell-based, human. Here is the method: as §1
A further assay deals with T1, Human recombinant MAGL (Homo sapiens, UniProt Q99685).
T1 construct: purchased Cayman Chemical
T1 sequence (Q99685 1-303): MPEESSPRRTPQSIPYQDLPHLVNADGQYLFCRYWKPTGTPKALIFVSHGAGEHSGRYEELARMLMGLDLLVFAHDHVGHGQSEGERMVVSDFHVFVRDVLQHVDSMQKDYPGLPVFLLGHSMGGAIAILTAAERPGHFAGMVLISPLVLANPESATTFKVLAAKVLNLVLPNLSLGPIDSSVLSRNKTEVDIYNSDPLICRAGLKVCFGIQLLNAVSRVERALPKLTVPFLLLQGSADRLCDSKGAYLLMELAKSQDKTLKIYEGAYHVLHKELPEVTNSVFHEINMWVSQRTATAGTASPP
The assay can be described thus: MAGL inhibition assay (4-NPA substrate, absorbance at 405 nm). In kind it is biochemical. As to the method: Compounds 1–3 were purchased from ChemBridge corporation, whereas compounds 4 and 5 were synthesized. Human recombinant MAGL, 4-nitrophenyl acetate substrate (4-NPA) and CAY10499 were purchased from Cayman Chemical. The IC50 values were generated in 96-well microtiter plates. The MAGL reaction was conducted at rt at a final volume of 200 µL in […] Tris buffer, pH 7.2, containing […] EDTA. A total of 150 µL of 4-NPA 133.3 µM was added to 10 µL of DMSO containing the appropriate amount of compound. The reaction was initiated by the addition of 40 µL of MAGL (11 ng/well) in such a way that the assay was linear over 30 min. The final concentration of the analyzed compounds ranged from 10 to 0.00001 µM for CAY10499 and from 200 to 0.0128 µM for the other compounds. After the reaction had proceeded for 30 min, absorbance values were then measured by using a VictorX3 PerkinElmer instrument at 405 nm. Two reactions were also run: one reaction containing no compounds and the second one containing neither inhibitor nor enzyme. To remove possible false positive results, a blank analysis was carried out for each compound concentration and the final absorbance results were obtained detracting the absorbance produced by the presence of all the components except MAGL in the same conditions.

In assay [6] the test system is MDA-MB-231, HCT116, CAOV3, OVCAR3 and SKOV3 cancer cells. The assay can be described thus: Cell viability assay, range over all tested cell lines. Particulars: Homo sapiens, 96 h. In kind it is cell-based. Here is the method: as §1
Setting [7] is: 30 min reaction, no DTT, read-out: MAGL inhibition IC50.

Where two headings read alike, the source gives them in different places.

With `COc1nn(-c2ccc(NC(=O)OCc3ccccc3)c(C)c2)c(=O)o1` [CAY10499, reference compound], the half-maximal inhibitory concentration (IC50) (usually the concentration needed to halve the response being measured) in assay [1] came out at 82 ± 5 µM; in assay [2], 45 ± 3 µM; in assay [3] it was 90 ± 6 µM; in assay [4], 52 ± 3 µM; in assay [5], 38 ± 4 µM.

As for `O=C(c1ccc(-c2ccccc2)cc1)N1CCN(c2cccc(Cl)c2)CC1` [compound 1], on Human recombinant MAGL (setting [7]), the half-inhibitory concentration (IC50) was determined as 23.3 µM.

With `O=C(c1ccc(-c2cccc3ccc(O)cc23)cc1)N1CCN(c2cccc(Cl)c2)CC1` [compound 4], the IC50 at Human recombinant MAGL (setting [7]) was found to be 6.1 µM; at Human recombinant MAGL (in the presence of 10 μM DTT, read-out: MAGL inhibition IC50 in the presence of DTT) it was 6.2 µM; in assay [1] (Homo sapiens, MDA-MB-231), 59 ± 5 µM; in assay [2] (Homo sapiens, HCT-116), 48 ± 2 µM; in assay [3] (Homo sapiens, Caov-3), 51 ± 3 µM; in assay [4] (Homo sapiens, OVCAR-3), 72 ± 4 µM. Also, the IC50 is 31 ± 2 µM in assay [5] (Homo sapiens, SK-OV-3) and 31 to 72 µM in assay [6]. The “Effect of preincubation time on MAGL inhibitory potency (reversibility)” value on Human recombinant MAGL (preincubated with the enzyme for 0, 30 and 60 min before adding substrate) is listed as “did not show any significant increase in inhibitory potency at longer incubation times”. For the same compound, the “Fold improvement of MAGL inhibition activity with respect to compound 1” value on Human recombinant MAGL (ratio of IC50 values vs compound 1) is 4 fold. The “Fold higher MAGL inhibition activity than compound 5” value at Human recombinant MAGL (ratio of IC50 values vs compound 5) was determined as 5 fold.

On to `O=C(c1ccc(-c2ccccc2)cc1)N1CCN(c2cccc3ccc(O)cc23)CC1` [compound 5], for which the concentration for half-maximal inhibition (IC50) at Human recombinant MAGL (setting [7]) worked out at 31.9 µM.
